# Results from US20050222266A1, “2-indanylamino derivatives for the therapy of chronic pain” (priority 2002, published 2005).
# Structures can show the parent of a compound that is named as a salt.
# How the values were obtained:
# [1] = tested on: mechanical hyperalgesia in streptozotocin (STZ)-induced diabetic neuropathy; assay: streptozotocin-induced diabetic neuropathy, paw pressure test; type: in vivo, rat; details: for Nociceptive threshold: 60 minutes before measurement; for % variation of the nociceptive threshold: vs vehicle-treated diabetic group
# Protocol: The objective of this study was to assess the antinociceptive effects of CHF 3381 (25, 50 and 100 mg/kg p.o.) and gabapentin (100 mg/kg p.o) on mechanical hyperalgesia in streptozotocin (STZ)-induced diabetic neuropathy in rats. Diabetes was induced by intraperitoneal injection of STZ (75 mg/kg), and 23 days later its presence was confirmed by measuring of tail vein blood glucose levels and only rats with […] were included in the study.
# After 25 days, distilled water, CHF3381 and gabapentin were administered 60 minutes before pain measurement. The nociceptive threshold was evaluated in all groups using a mechanical nociceptive stimulation (paw pressure test).
# An increasing pressure (grams of contact pressure) was applied onto the both hind paws of the animal until a nociceptive reaction (vocalisation or paw withdrawal) was determined. The results, expressed as the percentage variation of the nociceptive threshold calculated respect the mean value of the vehicle-treated diabetic group, are reported in Table 2.
# [2] = tested on: formalin-induced licking and flinching; assay: mice paw formalin test, acute treatment; type: in vivo; details: for Late phase licking/flinching time: 10 to 40 min; for Early phase licking/flinching time: first 5 min
# Protocol: (§1) The mice paw formalin test was performed as described by Wheeler-Aceto et al. (Psychopharmacology 104:35-44, 1991). Briefly, the day before the formalin injection, mice were placed individually into clear plastic cylinders for 30 minutes of adaptation. The day of testing 20 μl of 1% formalin was injected into the plantar surface of the left hind paw and the animals were again placed into the plastic cylinder for the behavioural observation. The amount of time, in seconds, the animals spent licking and flinching (L/F) the injected paw for the first 5 min (early phase), and then from 10 to 40 min(late phase) after formalin injection, was used as measurement of intensity of pain. CHF 3381 10-100 mg/kg i.p. and 25-200 mg/kg p.o. or the corresponding vehicles, were administered 15 and 30 min before formalin injection, respectively.
# [3] = tested on: formalin-induced licking and flinching; assay: mouse formalin test, 9 day treatment (tolerance); type: in vivo, mice
# Protocol: as §1
# Moreover, the formalin test was used to examine whether tolerance develops with respect to the antihyperalgesic effect of CHF 3381 after chronic treatment in comparison with the standard opioid morphine. Briefly, mice were divided randomly into five groups (12 mice per group) and administered once daily for 8 days as follows: three groups with saline i.p., one group with CHF 3381 60 mg/kg i.p. and one group with morphine 20 mg/kg i.p. On ninth day these groups were treated in following way: one saline pre-treated group was treated with saline i.p. (g1); two saline pre-treated group were treated with CHF 3381 30 mg/kg i.p. (g2) and with morphine 6 mg/kg i.p. (g3), respectively; the group pre-treated with CHF 3381 60 mg/kg was treated with CHF 3381 30 mg/kg i.p. (g4) and the group pre-treated with morphine 20 mg/kg was treated with morphine 6 mg/kg i.p.(g5), a dose that was previously shown to be active in the formalin test. CHF 3381 and morphine were administered 15 and 30 min before formalin injection, respectively.
# rotarod test, rats = details: rat, in vivo, 15 min before test
# Protocol: The side-effect profile of CHF 3381 was then evaluated in the rotarod test both in mice and rats. The day before the execution of the test, mice and rats were trained to maintain their equilibrium on the test apparatus. For mice, training consisted of 3 subsequent 2 min attempts on a rod rotating from 4.5 r.p.m. to 16.5 r.p.m.; for rats, of 3 subsequent 1 min attempts at 8 rpm (Kinnard and Carr, 1957). The morning of the test day, mice and rats were again tested on the rotarod and only animals able to maintain their equilibrium on the rod were retained for the experimental procedure. CHF 3381 was administered p.o. or i.p. to groups of at least 8 animals 15 min (time of peak effect for neurotoxicity) before the execution of the test. All controls received the corresponding vehicle. The number of mice falling during a 2-min test period and the number of rats falling for 3 subsequent 1-min attempts were used for the calculation of the respective doses at which 50% of the animals display neurotoxicity (TD50).
# NMDA receptors channels = details: displacement of [3H]-TPC; cited from earlier work
# rat MES model = details: cited from earlier work
# [4] = G2: 30 mg/kg i.p. on ninth day after 8 days saline
# [5] = G4: 30 mg/kg i.p. on ninth day after 8 days CHF 3381 60 mg/kg i.p.
smiles,measurement,setting,value
"NC(=O)CNC1Cc2ccccc2C1 [CHF 3381, N-2(indanyl)-glicinamide hydrochloride]",Nociceptive threshold,[1]; 25 mg/kg p.o.,250.0 ± 17.0 g
same,% variation of the nociceptive threshold,[1]; 25 mg/kg p.o.,83%
same,Nociceptive threshold,[1]; 50 mg/kg p.o.,319.2 ± 48.5 g
same,% variation of the nociceptive threshold,[1]; 50 mg/kg p.o.,134%
same,Nociceptive threshold,[1]; 100 mg/kg p.o.,287.5 ± 20.3 g
same,% variation of the nociceptive threshold,[1]; 100 mg/kg p.o.,110%
same,Late phase licking/flinching time,[2]; 10 mg/kg i.p.,165 ± 26 s
same,Early phase licking/flinching time,[2]; 10 mg/kg i.p.,95 ± 8 s
same,Late phase licking/flinching time,[2]; 25 mg/kg p.o.,92 ± 25 s
same,Early phase licking/flinching time,[2]; 25 mg/kg p.o.,99 ± 8 s
same,Late phase licking/flinching time,[2]; 30 mg/kg i.p.,58 ± 1 s
same,Early phase licking/flinching time,[2]; 30 mg/kg i.p.,59 ± 9 s
same,Late phase licking/flinching time,[2]; 50 mg/kg p.o.,30 ± 9 s
same,Early phase licking/flinching time,[2]; 50 mg/kg p.o.,72 ± 7 s
same,Late phase licking/flinching time,[2]; 60 mg/kg i.p.,17 ± 5 s
same,Early phase licking/flinching time,[2]; 60 mg/kg i.p.,32 ± 7 s
same,Late phase licking/flinching time,[2]; 100 mg/kg i.p.,2 ± 2 s
same,Early phase licking/flinching time,[2]; 100 mg/kg i.p.,17 ± 4 s
same,Late phase licking/flinching time,[2]; 100 mg/kg p.o.,23 ± 16 s
same,Early phase licking/flinching time,[2]; 100 mg/kg p.o.,46 ± 7 s
same,Late phase licking/flinching time,[2]; 200 mg/kg p.o.,12 ± 10 s
same,Early phase licking/flinching time,[2]; 200 mg/kg p.o.,47 ± 4 s
same,acute and tonic formalin-induced licking response,"[2]; mice, 100 mg/kg p.o. and 60 mg/kg i.p.",almost completely blocked
same,Early phase,[3]; [4],53 ± 8 s
same,Late phase,[3]; [4],91 ± 21 s
same,Early phase,[3]; [5],56 ± 6 s
same,Late phase,[3]; [5],74 ± 21 s
same,antihyperalgesic action after chronic treatment (tolerance),"[3]; once daily for 8 days, test on ninth day",lack of development of tolerance
same,TD50 at 15 min,"rotarod test, rats; ip, i.p. administration",113 mg/kg
same,TD50 at 15 min,"rotarod test, rats; oral administration",299 mg/kg
same,Ki,NMDA receptors channels,8.8 µM
same,anti-convulsivant activity,rat MES model,anti-convulsivant activity
